# Source: ChEMBL document CHEMBL4190294, “Design, synthesis and antiproliferative activity of decarbonyl luotonin analogues” (Eur J Med Chem, 2017)
# Calls of active or inactive are those of the source. No cut-off for these calls is given here.
# What was measured:
# [1] = target: T1, DNA topoisomerase 1 (Homo sapiens) (UniProt P11387); assay: Inhibition of human topoisomerase-1 expressed in baculovirus infected insect cells at 80 uM using supercoiled pGEM-5Zf(+) plasmid DNA as substrate after 30 mins by agarose gel electrophoresis method
# T1 sequence (whole entry): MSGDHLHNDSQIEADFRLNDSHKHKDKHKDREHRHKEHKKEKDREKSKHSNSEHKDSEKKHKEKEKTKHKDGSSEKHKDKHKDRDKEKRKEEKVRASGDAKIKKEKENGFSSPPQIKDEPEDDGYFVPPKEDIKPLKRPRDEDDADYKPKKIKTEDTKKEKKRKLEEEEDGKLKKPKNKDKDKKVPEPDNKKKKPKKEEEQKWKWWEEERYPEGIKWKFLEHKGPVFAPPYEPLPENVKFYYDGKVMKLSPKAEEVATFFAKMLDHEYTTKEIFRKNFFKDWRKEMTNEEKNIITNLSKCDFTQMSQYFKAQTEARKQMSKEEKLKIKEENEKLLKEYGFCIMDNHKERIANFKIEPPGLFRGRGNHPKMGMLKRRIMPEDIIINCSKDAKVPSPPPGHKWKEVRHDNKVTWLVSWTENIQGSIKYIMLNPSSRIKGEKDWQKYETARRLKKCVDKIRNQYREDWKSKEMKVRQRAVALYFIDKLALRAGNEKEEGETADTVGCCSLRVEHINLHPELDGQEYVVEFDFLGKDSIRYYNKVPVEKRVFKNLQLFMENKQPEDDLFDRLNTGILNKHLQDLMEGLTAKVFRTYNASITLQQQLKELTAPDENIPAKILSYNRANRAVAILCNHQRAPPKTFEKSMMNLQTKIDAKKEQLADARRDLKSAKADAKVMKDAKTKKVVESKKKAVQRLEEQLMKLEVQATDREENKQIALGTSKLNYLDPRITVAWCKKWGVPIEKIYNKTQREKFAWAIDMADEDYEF
# LNCaP = assay: Cytotoxicity against human LNCAP cells assessed as reduction in cell viability after 72 hrs by MTT assay; assay type: functional, cell-based
# HT-1080 = assay: Cytotoxicity against human HT1080 cells assessed as reduction in cell viability after 72 hrs by MTT assay; assay type: functional, cell-based; conditions: HT-1080, 72 h
# KB [2] = assay: Cytotoxicity against human KB cells assessed as reduction in cell viability after 72 hrs by MTT assay; assay type: functional, cell-based
# MDA-MB-231 = assay: Cytotoxicity against human MDA-MB-231 cells assessed as reduction in cell viability after 72 hrs by MTT assay; assay type: functional, cell-based; conditions: MDA-MB-231, 72 h
# KB [3] = assay: Cytotoxicity against human KB cells assessed as reduction in cell viability at 12.5 uM after 72 hrs by MTT assay; assay type: functional, cell-based
inhibition [1],Structure (SMILES),IC50 (LNCaP) [µM],IC50 (HT-1080) [µM],IC50 (KB [2]) [µM],IC50 (MDA-MB-231) [µM],Activity (KB [3])
Active,Cc1ccc2cc3c(nc2c1)-c1nc2ccccc2n1C3,39,8.7,75,> 100,–
Active,COc1ccc2nc3c(cc2c1)Cn1c-3nc2ccccc21,24.7,52.3,20,> 100,–
Active,c1ccc2nc3c(cc2c1)Cn1c-3nc2ccccc21,11.3,52.9,10.9,12,–
Active,COc1ccc2cc3c(nc2c1)-c1nc2ccccc2n1C3,25,95,40.6,> 100,–
Active,COc1cccc2cc3c(nc12)-c1nc2ccccc2n1C3,20,> 100,16.9,> 100,–

# More lines, now with the values behind:
Structure (SMILES),inhibition [1],IC50 (LNCaP) [µM],IC50 (HT-1080) [µM],IC50 (KB [2]) [µM],IC50 (MDA-MB-231) [µM],Activity (KB [3])
Clc1cccc2cc3c(nc12)-c1nc2ccccc2n1C3,–,24,28.7,11.5,69,Active
Cc1ccc2nc3c(cc2c1)Cn1c-3nc2ccccc21,Active,62.5,9.3,11.3,> 100,–
Brc1cccc2cc3c(nc12)-c1nc2ccccc2n1C3,Active,8.4,66,15.3,11.3,–
Cc1cccc2cc3c(nc12)-c1nc2ccccc2n1C3,Active,23.8,> 100,20,> 100,–
O=c1c2ccccc2nc2n1Cc1cc3ccccc3nc1-2,–,–,–,–,–,Active
